Data as given in the NIST ThermoML archive (doi:10.1021/acs.jced.6b00688).
± gives the expanded uncertainty stated by the source.

Assay: xn = mol fraction of the nth substance listed
Conditions: 100 kPa, Liquid; for viscosity: Falling or rolling sphere viscometry; for mass density: Vibrating tube method

CCCCCCCO [heptan-1-ol] + CC1CCCCC1
Conditions | mass density [kg/m3] | viscosity [mPa·s]
293.15 K, x2 = 0.1004 | 817.38 ± 1.6 | 5.541 ± 0.12
293.15 K, x2 = 0.1991 | 812.34 ± 1.6 | 4.404 ± 0.094
293.15 K, x2 = 0.3134 | 806.43 ± 1.6 | 3.336 ± 0.071
293.15 K, x2 = 0.399 | 801.91 ± 1.6 | 2.649 ± 0.056
293.15 K, x2 = 0.4994 | 796.51 ± 1.6 | 2.055 ± 0.044
293.15 K, x2 = 0.5997 | 790.98 ± 1.6 | 1.603 ± 0.034
293.15 K, x2 = 0.6987 | 785.57 ± 1.6 | 1.275 ± 0.027
293.15 K, x2 = 0.7995 | 779.94 ± 1.6 | 1.03 ± 0.022
293.15 K, x2 = 0.8995 | 774.56 ± 1.6 | 0.845 ± 0.018
298.15 K, x2 = 0.1004 | 813.81 ± 1.6 | 4.649 ± 0.099
298.15 K, x2 = 0.1991 | 808.71 ± 1.6 | 3.773 ± 0.08
298.15 K, x2 = 0.3134 | 802.7 ± 1.6 | 2.924 ± 0.062
298.15 K, x2 = 0.399 | 798.1 ± 1.6 | 2.325 ± 0.049
298.15 K, x2 = 0.4994 | 792.62 ± 1.6 | 1.83 ± 0.039
298.15 K, x2 = 0.5997 | 787 ± 1.6 | 1.448 ± 0.031
298.15 K, x2 = 0.6987 | 781.49 ± 1.6 | 1.165 ± 0.025
298.15 K, x2 = 0.7995 | 775.77 ± 1.6 | 0.951 ± 0.02
298.15 K, x2 = 0.8995 | 770.3 ± 1.6 | 0.79 ± 0.017
303.15 K, x2 = 0.1004 | 810.21 ± 1.6 | 4.037 ± 0.086
303.15 K, x2 = 0.1991 | 805.04 ± 1.6 | 3.261 ± 0.069
303.15 K, x2 = 0.3134 | 798.92 ± 1.6 | 2.548 ± 0.054
303.15 K, x2 = 0.399 | 794.25 ± 1.6 | 2.055 ± 0.044
303.15 K, x2 = 0.4994 | 788.68 ± 1.6 | 1.64 ± 0.035
303.15 K, x2 = 0.5997 | 782.98 ± 1.6 | 1.314 ± 0.028
303.15 K, x2 = 0.6987 | 777.38 ± 1.6 | 1.068 ± 0.023
303.15 K, x2 = 0.7995 | 771.56 ± 1.6 | 0.879 ± 0.019
303.15 K, x2 = 0.8995 | 766 ± 1.5 | 0.736 ± 0.016
308.15 K, x2 = 0.1004 | 806.59 ± 1.6 | 3.484 ± 0.074
308.15 K, x2 = 0.1991 | 801.33 ± 1.6 | 2.838 ± 0.06
308.15 K, x2 = 0.3134 | 795.12 ± 1.6 | 2.235 ± 0.048
308.15 K, x2 = 0.399 | 790.37 ± 1.6 | 1.827 ± 0.039
308.15 K, x2 = 0.4994 | 784.72 ± 1.6 | 1.476 ± 0.031
308.15 K, x2 = 0.5997 | 778.93 ± 1.6 | 1.197 ± 0.025
308.15 K, x2 = 0.6987 | 773.24 ± 1.6 | 0.983 ± 0.021
308.15 K, x2 = 0.7995 | 767.32 ± 1.5 | 0.816 ± 0.017
308.15 K, x2 = 0.8995 | 761.67 ± 1.5 | 0.702 ± 0.015
313.15 K, x2 = 0.1004 | 802.94 ± 1.6 | 3.027 ± 0.064
313.15 K, x2 = 0.1991 | 797.6 ± 1.6 | 2.485 ± 0.053
313.15 K, x2 = 0.3134 | 791.3 ± 1.6 | 1.932 ± 0.041
313.15 K, x2 = 0.399 | 786.47 ± 1.6 | 1.633 ± 0.035
313.15 K, x2 = 0.4994 | 780.73 ± 1.6 | 1.335 ± 0.028
313.15 K, x2 = 0.5997 | 774.85 ± 1.6 | 1.094 ± 0.023
313.15 K, x2 = 0.6987 | 769.07 ± 1.5 | 0.907 ± 0.019
313.15 K, x2 = 0.7995 | 763.06 ± 1.5 | 0.759 ± 0.016
313.15 K, x2 = 0.8995 | 757.31 ± 1.5 | 0.645 ± 0.014
318.15 K, x2 = 0.1004 | 799.26 ± 1.6 | 2.643 ± 0.056
318.15 K, x2 = 0.1991 | 793.83 ± 1.6 | 2.188 ± 0.046
318.15 K, x2 = 0.3134 | 787.42 ± 1.6 | 1.749 ± 0.037
318.15 K, x2 = 0.399 | 782.53 ± 1.6 | 1.468 ± 0.031
318.15 K, x2 = 0.4994 | 776.7 ± 1.6 | 1.213 ± 0.026
318.15 K, x2 = 0.5997 | 770.74 ± 1.6 | 1.004 ± 0.021
318.15 K, x2 = 0.6987 | 764.87 ± 1.5 | 0.84 ± 0.018
318.15 K, x2 = 0.7995 | 758.76 ± 1.5 | 0.708 ± 0.015
318.15 K, x2 = 0.8995 | 752.93 ± 1.5 | 0.607 ± 0.013
323.15 K, x2 = 0.1004 | 795.54 ± 1.6 | 2.322 ± 0.049
323.15 K, x2 = 0.1991 | 790.03 ± 1.6 | 1.937 ± 0.041
323.15 K, x2 = 0.3134 | 783.52 ± 1.6 | 1.559 ± 0.033
323.15 K, x2 = 0.399 | 778.55 ± 1.6 | 1.324 ± 0.028
323.15 K, x2 = 0.4994 | 772.64 ± 1.6 | 1.106 ± 0.024
323.15 K, x2 = 0.5997 | 766.59 ± 1.5 | 0.924 ± 0.02
323.15 K, x2 = 0.6987 | 760.64 ± 1.5 | 0.779 ± 0.017
323.15 K, x2 = 0.7995 | 754.43 ± 1.5 | 0.662 ± 0.014
323.15 K, x2 = 0.8995 | 748.52 ± 1.5 | 0.572 ± 0.012
328.15 K, x2 = 0.1004 | 791.78 ± 1.6 | 2.05 ± 0.044
328.15 K, x2 = 0.1991 | 786.18 ± 1.6 | 1.723 ± 0.037
328.15 K, x2 = 0.3134 | 779.58 ± 1.6 | 1.396 ± 0.03
328.15 K, x2 = 0.399 | 774.54 ± 1.6 | 1.2 ± 0.026
328.15 K, x2 = 0.4994 | 768.55 ± 1.5 | 1.011 ± 0.022
328.15 K, x2 = 0.5997 | 762.41 ± 1.5 | 0.853 ± 0.018
328.15 K, x2 = 0.6987 | 756.36 ± 1.5 | 0.725 ± 0.015
328.15 K, x2 = 0.7995 | 750.06 ± 1.5 | 0.621 ± 0.013
328.15 K, x2 = 0.8995 | 744.07 ± 1.5 | 0.54 ± 0.012
333.15 K, x2 = 0.1004 | 787.98 ± 1.6 | 1.82 ± 0.039
333.15 K, x2 = 0.1991 | 782.3 ± 1.6 | 1.541 ± 0.033
333.15 K, x2 = 0.3134 | 775.6 ± 1.6 | 1.254 ± 0.027
333.15 K, x2 = 0.399 | 770.5 ± 1.6 | 1.092 ± 0.023
333.15 K, x2 = 0.4994 | 764.42 ± 1.5 | 0.928 ± 0.02
333.15 K, x2 = 0.5997 | 758.17 ± 1.5 | 0.789 ± 0.017
333.15 K, x2 = 0.6987 | 752.05 ± 1.5 | 0.676 ± 0.014
333.15 K, x2 = 0.7995 | 745.66 ± 1.5 | 0.584 ± 0.012
333.15 K, x2 = 0.8995 | 739.59 ± 1.5 | 0.512 ± 0.011
